In patent publication EP4471049A1 (Zealand Pharma A/S, priority 2023, dated 2024):
*1 amine or outer side, *2 acyl side, *3 side chain or, on linkers, in order; H or OH if unused. Where a SMILES comes first, the peptide text is derived from it. Bridges are numbered along the chain shown (N, C = ends). Where no end group is shown, it is not given here. [ ]: non-standard residue; d: D form. The star is where a group is joined. 4‑Aminomethyl‑phenylacetyl = 4-aminomethyl-phenylacetyl unit, its amine closes the lactam, O=C(Cc1ccc(CN[*:1])cc1)[*:2]; dGly‑CF3 = O=C([C@H](N[*:1])C(F)(F)F)[*:2]; 2Nal = N[C@@H](Cc1ccc2ccccc2c1)C(=O)O; AEF = NCCOc1ccc(C[C@H](N)C(=O)O)cc1; X1 = O=C(Cc1ccc(CN[*:1])cc1)[*:2]; 3Pal = N[C@@H](Cc1cccnc1)C(=O)O; αMeL = CC(C)C[C@](C)(N)C(=O)O; Pyrrolidide = C1CCN(*)C1; Dab = NCC[C@H](N)C(=O)O

T1: human IL-23R (Homo sapiens, UniProt Q5VWK5)
T1 sequence (Q5VWK5 22-629): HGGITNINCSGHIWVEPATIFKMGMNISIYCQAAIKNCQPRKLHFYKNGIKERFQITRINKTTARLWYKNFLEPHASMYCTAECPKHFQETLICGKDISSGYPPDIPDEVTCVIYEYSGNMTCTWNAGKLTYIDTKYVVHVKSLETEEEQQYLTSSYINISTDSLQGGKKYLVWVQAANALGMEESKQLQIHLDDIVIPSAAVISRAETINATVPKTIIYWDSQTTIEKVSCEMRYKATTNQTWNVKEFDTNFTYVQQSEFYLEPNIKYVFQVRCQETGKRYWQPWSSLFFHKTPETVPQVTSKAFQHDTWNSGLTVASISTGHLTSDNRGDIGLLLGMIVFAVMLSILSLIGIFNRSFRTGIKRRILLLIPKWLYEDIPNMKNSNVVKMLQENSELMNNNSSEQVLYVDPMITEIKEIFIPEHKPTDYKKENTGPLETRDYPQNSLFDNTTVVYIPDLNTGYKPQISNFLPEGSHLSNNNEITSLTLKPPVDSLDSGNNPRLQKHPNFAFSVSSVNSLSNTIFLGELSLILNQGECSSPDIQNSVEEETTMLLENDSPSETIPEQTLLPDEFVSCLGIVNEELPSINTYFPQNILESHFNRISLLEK

T2: human IL-23R endogenously expressed on DB cells (human, UniProt Q5VWK5 24-629)
T2 sequence (looked up): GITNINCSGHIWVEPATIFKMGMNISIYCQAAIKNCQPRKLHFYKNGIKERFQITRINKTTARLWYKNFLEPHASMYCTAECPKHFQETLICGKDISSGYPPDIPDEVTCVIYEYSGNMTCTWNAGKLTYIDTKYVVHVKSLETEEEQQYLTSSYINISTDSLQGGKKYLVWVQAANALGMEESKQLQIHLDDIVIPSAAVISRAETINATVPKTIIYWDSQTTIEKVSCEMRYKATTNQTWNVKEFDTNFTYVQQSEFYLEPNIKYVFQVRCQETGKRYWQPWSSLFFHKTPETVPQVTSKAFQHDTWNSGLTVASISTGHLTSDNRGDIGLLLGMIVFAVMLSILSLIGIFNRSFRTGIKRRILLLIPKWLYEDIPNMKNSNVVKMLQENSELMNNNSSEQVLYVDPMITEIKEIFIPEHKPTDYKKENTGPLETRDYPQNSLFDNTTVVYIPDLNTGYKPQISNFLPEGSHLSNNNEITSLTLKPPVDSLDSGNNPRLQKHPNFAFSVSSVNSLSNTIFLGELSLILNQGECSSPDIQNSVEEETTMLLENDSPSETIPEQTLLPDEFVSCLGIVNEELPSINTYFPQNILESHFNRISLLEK

B1: Ref 125 (peptide)
peptide: [4‑Aminomethyl‑phenylacetyl]SEWQ[Dab][AEF][2Nal][αMeL]E[Dab]-NH2
modifications: lactam (positions not given here); lactam 3-6; not fully specified (bridges); printed as [4-Aminomethyl-phenylacetyl](1c)*SE(2c)WQ[Dab](2c)[Y(2-aminoethoxy)][2-Nal][2-Me-Leu]E(1c)[Dab]-[NH2]

What was measured:
[1] = target: T1, human IL-23R; assay: biochemical; conditions: for Emax: read-out: % displacement (hIL-23R binding)
From the text: The compound binding affinity for IL-23R was estimated by the ability of compounds to displace a fluorophore-labelled reference compound from the human IL-23R. The assay principle relies on Bioluminescence Resonance Energy Transfer (BRET) between a fluorophore-labelled reference compound binding to the IL-23R part of a fusion protein consisting of the IL-23R fused to a Nanoluc luciferase enzyme (Nanoluc). The Nanoluc is placed in the N-terminus in close proximity to the binding domain of the ligand. Upon close proximity between the fluorophore of the fluorophore-labelled compound and the Nanoluc of the fusion protein, bioluminescence energy generated from conversion of a Nanoluc substrate, is transferred to the fluorophore resulting in an increase in BRET. In presence of an unlabelled compound, the unlabelled compound displaces the fluorophore-labelled peptide from its binding site resulting in a decrease in BRET. The concentration for which half of the fluorophore-labelled peptide is displaced by the unlabelled compound depends on the affinity of the compound for the IL-23R, and is termed the IC50 concentration.
The plasmid also contained a gene to confer resistance for the antibiotic hygromycin. A cell line stably expressing the Nluc-IL23R fusion protein was generated by transfection of HEK293 cells with the expression plasmid and selected with hygromycin for 3 weeks in Growth medium consisting of DMEM w/ Glutamax-I containing, 10% V/V FBS, 1% V/V P/S, 1 mM Sodium Pyruvate, and 1X NEAA, and 0.3 mg/mL hygromycin. The remaining cells were propagated and considered a stable expressing Nluc-IL23R fusion protein pool clone.
Cells expressing the Nluc-IL23R fusion protein were expanded in Growth medium and membranes prepared by homogenization of a cell pellet from 18 T175 flasks (4 °C in subsequent steps). The cell pellet was lysed Tris 10 mM, 7.5, 1 mM EDTA and protease inhibitors (Complete, Roche) and homogenized using a 15 mL glass-dounce by 50 strokes. The homogenate was spun at spin @1500 rpm for 10 min, the supernatant transferred to SV-34 tubes and spun at 40000g for 20 min at 4 °C to pellet the crude membranes. The supernatant was then removed, the pellet resuspended in 5 mL buffer containing 50 mM HEPES pH 7.4, 5 mM EGTA, and 5 mM MgCl2, and homogenized. Aliquots of the resuspended and homogenized membranes containing the Nluc-IL23R fusion protein were stored at -80 °C until use.
The plate was sealed with light impermeable plate seals, and incubated on an orbital shaker 400 rpm for 2 hours at room temperature. To determine the BRET ratio, the plate seal was removed and 25 µL of the Nanoluc substrate (Promega N1572) diluted 1:500 was added to each well and incubated for 1-2 minutes on an orbital shaker at 400 rpm. […] The BRET ratio was calculated as the fluorescence from the TAMRA/nanoluc bioluminescence.
Compound potency (IC50) and maximal displacement (% displacement) were estimated by computer-aided curve fitting using a 4-parameter logistic (4PL) non-linear model. […]
In this application, the inventors provide the data as IC50 values.

[2] = target: T2, human IL-23R endogenously expressed on …; assay: cell-based or functional assay

Molecule	% displacement (hIL-23R binding) [1] [%]	IC50 [1] [nM]	Emax [1] [%]	hIL-23 (pSTAT3) antagonist % inhibition [2] [%]	other results
CNC(=O)[C@H](Cc1cccnc1)NC(=O)[C@H](CCN)NC(=O)[C@@H]1CCC(=O)NCc2ccc(cc2)CC(=O)N[C@@H](C)C(=O)N[C@H]2CCC(=O)NCC[C@H](NC(=O)[C@H](CCC(N)=O)NC(=O)[C@H](Cc3c[nH]c4ccccc34)NC2=O)C(=O)N[C@@H](Cc2ccc(OCCN)cc2)C(=O)N[C@@H](CC2CC2)C(=O)NC(C)(C)C(=O)N1 [Compound 42, [4-Aminomethyl-phenylacetyl](1c)*AE(2c)WQ[Dab](2c)[Y(2-aminoethoxy)][Cyclopropyl-Ala][Aib]E(1c)[Dab][3-(3-Pyridyl)-Ala]-[NHMe]]	100	–	–	–	–
CNC(=O)[C@H](Cc1cccnc1)NC(=O)[C@H](CCN)NC(=O)[C@@H]1CCC(=O)NCc2ccc(cc2)CC(=O)N[C@@H](C)C(=O)N[C@H]2CCC(=O)NCC[C@H](NC(=O)[C@H](CCC(N)=O)NC(=O)[C@H](Cc3c[nH]c4ccccc34)NC2=O)C(=O)N[C@@H](Cc2ccc(OCCN)cc2)C(=O)N[C@@H](Cc2c[nH]c3ncccc23)C(=O)NC(C)(C)C(=O)N1 [Compound 44, [4-Aminomethyl-phenylacetyl](1c)*AE(2c)WQ[Dab](2c)[Y(2-aminoethoxy)][7-AzaTrp][Aib]E(1c)[Dab][3-(3-Pyridyl)-Ala]-[NHMe]]	–	0.27	100	–	–
CNC(=O)[C@H](Cc1cccnc1)NC(=O)[C@H](CCN)NC(=O)[C@@H]1CCC(=O)NCc2ccc(cc2)CC(=O)N[C@@H](C)C(=O)N[C@H]2CCC(=O)NCC[C@H](NC(=O)[C@H](CCC(N)=O)NC(=O)[C@H](Cc3c[nH]c4ccccc34)NC2=O)C(=O)N[C@@H](Cc2c[nH]c3ccccc23)CC(=O)N[C@@H](Cc2ccc3ccccc3c2)C(=O)NC(C)(C)C(=O)N1 [Compound 45, [4-Aminomethyl-phenylacetyl](1c)*AE(2c)WQ[Dab](2c)[beta-hTrp][2-Nal][Aib]E(1c)[Dab][3-(3-Pyridyl)-Ala]-[NHMe]]	104	4.2	–	–	–
CNC(=O)[C@H](Cc1cccnc1)NC(=O)[C@H](CCN)NC(=O)[C@@H]1CCC(=O)NCc2ccc(cc2)CC(=O)N[C@@H](C)C(=O)N[C@H]2CCC(=O)NCC[C@H](NC(=O)[C@H](CCC(N)=O)NC(=O)[C@H](Cc3c[nH]c4ccccc34)NC2=O)C(=O)N[C@@H](Cc2ccc(OCCN)cc2)C(=O)N[C@@H](Cc2c[nH]c3ccccc23)CC(=O)NC(C)(C)C(=O)N1 [Compound 46, [4-Aminomethyl-phenylacetyl](1c)*AE(2c)WQ[Dab](2c)[Y(2-aminoethoxy)][beta-hTrp][Aib]E(1c)[Dab][3-(3-Pyridyl)-Ala]-[NHMe]]	–	57	101	–	–
CNC(=O)[C@H](Cc1cccnc1)NC(=O)[C@H](CCN)NC(=O)[C@@H]1CCC(=O)NCc2ccc(cc2)CC(=O)N[C@@H](C)C(=O)N[C@H]2CCC(=O)NCC[C@H](NC(=O)[C@H](CCC(N)=O)NC(=O)[C@H](Cc3c[nH]c4ccccc34)NC2=O)C(=O)N[C@@H](Cc2c[nH]c3c(F)cccc23)C(=O)N[C@@H](Cc2ccc3ccccc3c2)C(=O)NC(C)(C)C(=O)N1 [Compound 47, [4-Aminomethyl-phenylacetyl](1c)*AE(2c)WQ[Dab](2c)[7-F-Trp][2-Nal][Aib]E(1c)[Dab][3-(3-Pyridyl)-Ala]-[NHMe]]	–	–	103	–	–
CC(C)C[C@]1(C)NC(=O)[C@H](Cc2ccc3ccccc3c2)NC(=O)[C@H](Cc2ccc(OCCN)cc2)NC(=O)[C@@H]2CCNC(=O)CC[C@H](NC(=O)[C@H](CO)NC(=O)Cc3ccc(cc3)CNC(=O)CC[C@@H](C(=O)N[C@@H](CCN)C(N)=O)NC1=O)C(=O)N[C@@H](Cc1c[nH]c3ccccc13)C(=O)N[C@@H](CCC(=O)N1CCCC1)C(=O)N2 [Ref 146, [4-Aminomethyl-phenylacetyl](1c)*SE(2c)W[Q(pyrrolidin)][Dab](2c)[Y(2-aminoethoxy)][2-Nal][2-Me-Leu]E(1c)[Dab]-[NH2], reference compound] ([X1]SEWE(Pyrrolidide)[Dab][AEF][2Nal][αMeL]E[Dab]-NH2; lactam 3-6, N-10)	105	–	–	–	–
B1	–	–	–	98	hIL-23 (pSTAT3) antagonist IC50 [2]: 21 nM
[4‑Aminomethyl‑phenylacetyl]SEWQ[Dab][AEF][2Nal][αMeL]E[dGly‑CF3][3Pal]-NH2 (lactam (positions not given here); lactam 3-6; not fully specified (bridges)) [Compound 16]	–	–	–	97	hIL-23 (pSTAT3) antagonist IC50 [2]: 1.4 nM
H-DCSCWQCWWLCR-NH2 (bridge 4-7, 2-11; not fully specified (bridges)) [I3 (isomer 3)]	–	–	–	100	–
